Assay results published in patent publication US5891851A, “Antibiotic, feglymycin, processes for its preparation and its use” (Hoechst Aktiengesellschaft, priority 1996, dated 1999).
*1 amine or outer side, *2 acyl side, *3 side chain or, on linkers, in order; H or OH if unused. Where a SMILES comes first, the peptide text is derived from it. [ ]: non-standard residue; d: D form. X1 = O=C(C(N[*:1])c1cc(O)cc(O)c1)[*:2]; Hpg = N[CH](C(=O)O)c1ccc(O)cc1

Legend:
[1] = assay type: cell-based
Text: The tolerability of feglymycin in both the active concentration and even in higher concetrations is good. Cytotoxic effects or other toxicities were not observed.

[2] = system: human immunodeficiency viruses; assay type: cell-based, human immunodeficiency virus
Procedure: The IC50 is less than 7 μg per ml. The inhibitory activity can be measured by light-microscopic observation of HIV-typical syncytia. In this connection, the reduction in syncytia formation is a measure of the activity of the agent, in this case of feglymycin. It is also possible, however, to determine the activity of feglymycin by measuring the amount of HIV particles in cell culture supernatants, e.g. by means of commercially available p24 antigen tests.

[3] = assay type: physicochemical
Text: Stable in neutral and mildly alkaline medium, but unstable in strongly acidic or strongly alkaline solutions.

- IC50, inhibitory activity on human immunodeficiency viruses [2]: less than 7 μg per ml
Structure (SMILES): CC(C)C(NC(=O)C(NC(=O)C(N)c1ccc(O)cc1)c1cc(O)cc(O)c1)C(=O)NC(C(=O)NC(C(=O)NC(C(=O)NC(C(=O)NC(C(=O)NC(C(=O)NC(C(=O)NC(C(=O)NC(Cc1ccccc1)C(=O)NC(CC(=O)O)C(=O)O)c1ccc(O)cc1)c1cc(O)cc(O)c1)C(C)C)c1cc(O)cc(O)c1)c1ccc(O)cc1)c1cc(O)cc(O)c1)c1ccc(O)cc1)c1cc(O)cc(O)c1 (stereo not drawn) [feglymycin] (H-[Hpg][X1]V[X1][Hpg][X1][Hpg][X1]V[X1][Hpg]FD-OH; configuration not given here)
- Cytotoxic effects or other toxicities [1]: not observed
- Solubility [3]: soluble in methanol, acetonitrile and water
